Experiments:
Experiment in all cases: relative viability (nuclei count vs DMSO), 5 days (fraction); higher = more cells survive
[1] = compound: COc1cc2c(Oc3ccc(NC(=O)C4(C(=O)Nc5ccc(F)cc5)CC4)cc3F)ccnc2cc1OCCCN1CCOCC1 [Foretinib] (anchor plate); conditions: 0.25 µM
How it was run: (§1)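 Only plates meeting two conditions passed: control CV below 25% and at least one doubling. Lung cancer cell lines, kept overnight at 37 °C in 1536-well plates, were pinned with five library-drug doses (not always all listed) √10 apart on vehicle-anchored plates and grown 5 days without medium change. A one-step fix, permeabilisation and Hoechst stain preceded 4× imaging and MetaXpress nuclear counting. Viability equals treated-well nuclei divided by vehicle-well nuclei, as the median over plates.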

[2] = compound: O=S(=O)(c1ccccc1)N(CC(F)(F)F)c1ccc(C(O)(C(F)(F)F)C(F)(F)F)cc1
How it was run: as §1

[3] = compound: C1=CC2=C(C=CC(=C2)C=C3C(=O)NC(=NCC4=CC=CS4)S3)N=C1 [RO-3306] + Cc1nc(Nc2ncc(C(=O)Nc3c(C)cccc3Cl)s2)cc(N2CCN(CCO)CC2)n1 [Dasatinib] (partner 0.075 µM)
How it was run: (§2)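 Lung cancer cell lines in 1536-well plates were dosed by pin tool the day after seeding, either with one drug alone or with a fixed anchor-drug dose plus five library-drug doses (not always all listed) in √10 steps. After 5 days, cells were fixed and their nuclei stained in one step (final 0.05% Triton X-100, 1% formaldehyde, 1 ug/ml Hoechst), then counted on 4× images. Relative viability is the nuclei count in treated wells divided by that in vehicle wells. Values are medians of duplicate plates.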

[4] = compound: O=S(=O)(c1ccccc1)N(CC(F)(F)F)c1ccc(C(O)(C(F)(F)F)C(F)(F)F)cc1 + CC1(C)CCC(c2ccc(Cl)cc2)=C(CN2CCN(c3ccc(C(=O)NS(=O)(=O)c4ccc(N[C@H](CCN5CCOCC5)CSc5ccccc5)c(S(=O)(=O)C(F)(F)F)c4)cc3)CC2)C1 [Navitoclax] (partner 0.5 µM)
How it was run: as §2

[5] = compound: O=S(=O)(c1ccccc1)N(CC(F)(F)F)c1ccc(C(O)(C(F)(F)F)C(F)(F)F)cc1 + Cc1nc(NC(=O)N2CCC[C@H]2C(N)=O)sc1-c1ccnc(C(C)(C)C(F)(F)F)c1 [Alpelisib] (partner 2 µM)
How it was run: as §2

[6] = compound: O=S(=O)(c1ccccc1)N(CC(F)(F)F)c1ccc(C(O)(C(F)(F)F)C(F)(F)F)cc1 + O=C(CCCCCCC(=O)Nc1ccccc1)NO [Vorinostat] (partner 1 µM)
How it was run: as §2

| Cell Line | relative viability [1] | relative viability ([2]; 0.8 µM) | relative viability ([2]; 2.53 µM) | relative viability ([2]; 8 µM) | relative viability ([3]; first compound 0.01 µM) | relative viability ([3]; first compound 0.03162 µM) | relative viability ([3]; first compound 0.1 µM) | relative viability ([3]; first compound 0.3162 µM) | relative viability ([3]; first compound 1 µM) | relative viability ([4]; first compound 0.8 µM) | relative viability ([4]; first compound 2.53 µM) | relative viability ([4]; first compound 8 µM) | relative viability ([5]; first compound 0.8 µM) | relative viability ([5]; first compound 2.53 µM) | relative viability ([5]; first compound 8 µM) | relative viability ([6]; first compound 0.8 µM) | relative viability ([6]; first compound 2.53 µM) | relative viability ([6]; first compound 8 µM) |
| --- | --- | --- | --- | --- | --- | --- | --- | --- | --- | --- | --- | --- | --- | --- | --- | --- | --- | --- |
| NCI-H1666 | 0.977 | 0.939 | 0.925 | 0.827 | 0.794 | 0.724 | 0.772 | 0.795 | 0.698 | 0.756 | 0.882 | 0.99 | 0.776 | 0.868 | 0.892 | 0.712 | 0.823 | 0.809 |
| NCI-H2126 | 1.2 | 1.1 | 1.01 | 1.02 | 0.663 | 0.622 | 0.58 | 0.523 | 0.542 | 0.892 | 0.824 | 0.877 | 0.878 | 0.768 | 0.773 | 0.89 | 0.684 | 0.723 |
| LXF-289 | 0.991 | 0.949 | 0.882 | 0.843 | 0.19 | 0.259 | 0.199 | 0.198 | 0.2 | 0.879 | 0.826 | 0.852 | 1.03 | 0.912 | 0.789 | 0.719 | 0.656 | 0.74 |
| NCI-H1734 | 0.84 | 1.21 | 1.01 | 0.887 | 0.442 | 0.476 | 0.444 | 0.473 | 0.443 | 1.14 | 0.809 | 0.801 | 0.845 | 0.626 | 0.708 | 1.01 | 0.898 | 0.498 |
| NCI-H2087 | 1.06 | 1.11 | 0.993 | 0.909 | 1.01 | 0.541 | 0.914 | 0.869 | 1.04 | 1.03 | 0.942 | 0.916 | 1.16 | 1.11 | 0.972 | 0.89 | 0.509 | 0.946 |
| NCI-H460 | 1 | 1.06 | 0.949 | 0.943 | 0.543 | 0.435 | 0.448 | 0.518 | 0.385 | 1.42 | 1.01 | 0.967 | 0.544 | 0.512 | 0.512 | 0.847 | 0.673 | 0.618 |
| NCI-H1793 | 0.741 | 0.758 | 0.747 | 0.785 | 0.341 | 0.345 | 0.324 | 0.451 | 0.353 | 0.471 | 0.261 | 0.301 | 0.585 | 0.491 | 0.578 | 0.574 | 0.539 | 0.521 |
| A-427 | 1.08 | 1.08 | 0.929 | 1.21 | 0.739 | 0.565 | 0.644 | 0.631 | 0.551 | 1.01 | 0.886 | 1.01 | 1.11 | 1.02 | 1.02 | 0.85 | 0.803 | 0.812 |

From the supplement of paper PMC10307832
